Laboratory results taken from paper PMC9503977, “Isolation, Characterization and Pharmacological Investigations of a New Phenolic Compound along with Four Others Firstly Reported Phytochemicals from Glycosmis cyanocarpa (Blume) Spreng” (Molecules, 2022).
≈ marks a conversion by molar mass, not a printed value. Entries after “also recorded” stand apart in the source; their conditions may differ.

Experiments:
[1] = test system: two Gram-positive and four Gram-negative bacteria; experiment: Disc diffusion antibacterial assay, whole panel; assay type: cell-based; conditions: 100 μg/disc
[2] = Brine shrimp lethality bioassay (cytotoxicity); conditions: in vivo, other: exposure of nauplii in simulated seawater, pH 8, from linear regression, 400–0.78125 μg/mL
Description: The brine shrimp lethality bioassay was conducted to evaluate the cytotoxic potential of the isolated pure compounds. An amount of 38 g of NaCl salt was dissolved in 1000 mL of distilled water to simulate seawater, along with NaOH to keep the pH constant (8.0). Brine shrimp eggs were hatched in artificial seawater to produce nauplii. Isolated compounds were dissolved in DMSO then diluted with simulated seawater into a series of concentrations (400–0.78125 μg/mL). As the reference standard, vincristine sulfate was employed at various doses (400–0.78125 μg/mL), and DMSO served as the negative control. The nauplii were counted visually, and then 5 mL of simulated saltwater was added to vials of the mixture at room temperature. (2) Mortality%=Number of nauplii death/Number of nauplii taken×100

[3] = test system: Sarcina lutea; experiment: Disc diffusion antibacterial assay; conditions: Micrococcus luteus, read-out: Diameter of Zone of Inhibition
[4] = test system: Staphylococcus aureus; experiment: Disc diffusion antibacterial assay; conditions: read-out: Diameter of Zone of Inhibition
[5] = test system: Salmonella typhi; experiment: Disc diffusion antibacterial assay; assay type: cell-based; conditions: Salmonella enterica, read-out: Diameter of Zone of Inhibition
[6] = DPPH free radical scavenging assay; assay type: biochemical; conditions: for DPPH scavenging activity: at 200 μg/mL; for IC50, DPPH free radical scavenging: from linear regression equation, 200 to 0.78125 μg/mL, 1 h in dark
Description: To evaluate the free radical scavenging abilities of isolated phytochemicals on 1, 1-diphenyl-2-picrylhydrazyl, 2.0 mL of methanol solution of the compounds at serially diluted various concentrations (200 μg/mL to 0.78125 μg/mL) were mixed with 3.0 mL of a DPPH methanol solution (20 μg/mL) (DPPH). The mixture was kept in dark for 1 h. The antioxidant properties were assessed by comparing the decolorizing of a purple DPPH methanol solution by the compounds to that of butylated hydroxy anisole (BHA). (1) % Inhibition of free radical DPPH=1−Absorbance ofsample/Absorbance of the control reaction×100

[7] = test system: Escherichia coli; experiment: Disc diffusion antibacterial assay; conditions: read-out: Diameter of Zone of Inhibition
[8] = test system: Klebsiella spp.; experiment: Disc diffusion antibacterial assay; conditions: read-out: Diameter of Zone of Inhibition
[9] = test system: Shigella flexneri; experiment: microbe, parasite or virus in culture; conditions: read-out: Diameter of Zone of Inhibition

## CC[C@H](CC[C@@H](C)[C@H]1CC[C@H]2[C@@H]3CC=C4C[C@@H](O)CC[C@]4(C)[C@H]3CC[C@]12C)C(C)C [Compound 5, β-sitosterol]
[1]
  antibacterial spectrum (in words): inhibited only Gram-positive bacteria
[2]
  LC50: 1.37 µg/mL (≈ 3.3 µM)
[3]
  zone of inhibition at 100 µg/disc: 15 mm
[4]
  zone of inhibition at 100 µg/disc: 17 mm

## COc1cc(CC(C)CO)ccc1O (stereo not drawn) [Compound 1, 4-(3-hydroxy-2-methylpropyl)-2-methoxyphenol]
[1]
  antibacterial spectrum (in words): broad-spectrum antibacterial activity
[5]
  zone of inhibition at 100 µg/disc: 18 mm
[6]
  DPPH scavenging activity: 92.96%
  IC50, DPPH free radical scavenging: 9.97 µg/mL (≈ 50.8 µM)
[7]
  zone of inhibition at 100 µg/disc: 19 mm
[2]
  LC50: 1.08 µg/mL (≈ 5.5 µM)
[3]
  zone of inhibition at 100 µg/disc: 20 mm
[4]
  zone of inhibition at 100 µg/disc: 21 mm

## Cc1cc(C(C)(C)C)c(O)c(C(C)(C)C)c1 [BHT, Butylated Hydroxytoluene]
[6]
  DPPH scavenging activity: 96.48%
  IC50, DPPH free radical scavenging: 6.06 µg/mL (≈ 27.5 µM)

## CN(C)[C@@H]1C(O)=C(C(N)=O)C(=O)[C@@]2(O)C(O)=C3C(=O)c4c(O)cccc4[C@@](C)(O)[C@H]3C[C@@H]12 [Tetracycline]
[5]
  zone of inhibition at 100 µg/disc: 41 mm
[8]
  zone of inhibition at 100 µg/disc: 39 mm
[7]
  zone of inhibition at 100 µg/disc: 41 mm
[9]
  zone of inhibition at 100 µg/disc: 38 mm
[3]
  zone of inhibition at 100 µg/disc: 38 mm
[4]
  zone of inhibition at 100 µg/disc: 37 mm

## C[C@H]1COc2c(N3CCN(C)CC3)c(F)cc3c(=O)c(C(=O)O)cn1c23 [Levofloxacin]
[5]
  zone of inhibition at 100 µg/disc: 36 mm
[8]
  zone of inhibition at 100 µg/disc: 38 mm
[7]
  zone of inhibition at 100 µg/disc: 42 mm
[9]
  zone of inhibition at 100 µg/disc: 41 mm
[3]
  zone of inhibition at 100 µg/disc: 39 mm
[4]
  zone of inhibition at 100 µg/disc: 40 mm

## CC[C@H]1OC(=O)[C@H](C)[C@@H](O[C@H]2C[C@@](C)(OC)[C@@H](O)[C@H](C)O2)[C@H](C)[C@@H](O[C@@H]2O[C@H](C)C[C@H](N(C)C)[C@H]2O)[C@](C)(O)C[C@@H](C)CN(C)[C@H](C)[C@@H](O)[C@]1(C)O [Azithromycin]
[5]
  zone of inhibition at 100 µg/disc: 34 mm
[8]
  zone of inhibition at 100 µg/disc: 37 mm
[7]
  zone of inhibition at 100 µg/disc: 40 mm
[9]
  zone of inhibition at 100 µg/disc: 41 mm
[3]
  zone of inhibition at 100 µg/disc: 40 mm
[4]
  zone of inhibition at 100 µg/disc: 39 mm

## Cc1c[nH]c2ccccc12 [Compound 2, 3-methyl-1H-indole]
[1]
  antibacterial spectrum (in words): the most active against Staphylococcus aureus; also recorded: inhibited only Gram-positive bacteria
[6]
  IC50, DPPH free radical scavenging: 12.37 µg/mL (≈ 94.3 µM)
[2]
  LC50: 1.02 µg/mL (≈ 7.78 µM)
[3]
  zone of inhibition at 100 µg/disc: 19 mm
[4]
  zone of inhibition at 100 µg/disc: 17 mm

## CC[C@]1(O)C[C@H]2CN(CCc3c([nH]c4ccccc34)[C@@](C(=O)OC)(c3cc4c(cc3OC)N(C=O)[C@H]3[C@@](O)(C(=O)OC)[C@H](OC(C)=O)[C@]5(CC)C=CCN6CC[C@]43[C@@H]65)C2)C1 [VS, Vincristine Sulphate]
[2]
  LC50: 0.91 µg/mL

## CN[C@H](CC(C)C)C(=O)N[C@H]1C(=O)N[C@@H](CC(N)=O)C(=O)N[C@H]2C(=O)N[C@H]3C(=O)N[C@H](C(=O)N[C@H](C(=O)O)c4cc(O)cc(O)c4-c4cc3ccc4O)[C@H](O)c3ccc(c(Cl)c3)Oc3cc2cc(c3O[C@@H]2O[C@H](CO)[C@@H](O)[C@H](O)[C@H]2O[C@H]2C[C@](C)(N)[C@H](O)[C@H](C)O2)Oc2ccc(cc2Cl)[C@H]1O [Vancomycin]
[5]
  zone of inhibition at 100 µg/disc: 39 mm
[8]
  zone of inhibition at 100 µg/disc: 43 mm
[7]
  zone of inhibition at 100 µg/disc: 42 mm
[9]
  zone of inhibition at 100 µg/disc: 38 mm
[3]
  zone of inhibition at 100 µg/disc: 42 mm
[4]
  zone of inhibition at 100 µg/disc: 41 mm

## CC[C@H](/C=C/[C@@H](C)[C@H]1CC[C@H]2[C@@H]3CC=C4C[C@@H](O)CC[C@]4(C)[C@H]3CC[C@]12C)C(C)C [Compound 4, Stigmasterol]
[1]
  antibacterial spectrum (in words): inhibited only Gram-positive bacteria
[2]
  LC50: 1.92 µg/mL (≈ 4.65 µM)
[3]
  zone of inhibition at 100 µg/disc: 17 mm
[4]
  zone of inhibition at 100 µg/disc: 16 mm
